pEC50: −log10 of the molar value. Where two headings read alike, the source gives them in different places.
Key:
[1] = Cytotoxicity in Vero cells; type: cell-based; conditions: African green monkey
Experimental: (§1) We also perform toxicity assays by measuring the inhibition of uptake of […] dye by treated cells. These assays are done in 96 well plates. After the standard 10 day treatment regimen medium is removed and PBS containing MTS dye added to each well. After a 2 hour incubation the absorbance of the metabolized product is measured at 490 nm.

[2] = Cytotoxicity in CEM cells; type: cell-based; conditions: human
Experimental: as §1

[3] = Cytotoxicity in PBM cells; type: cell-based, human; conditions: human
Experimental: as §1
(§2) Human PBM cells from healthy donors, seronegative for HIV-1 and HBV, are isolated by a single-step Ficoll-Hypaque discontinuous gradient centrifugation and propagated as described previously (Schinazi et al., Antimicrobial Agents Chemother., 1990, 34:1061; 1992, 36:2423; 1993, 37:875). Compounds are screened for activity against HIV-1 and cytotoxicity by a protocol reported previously reported by Schinazi, et al. The prototype strain of HIV-1LAI obtained from the Centers for Disease Control and Prevention, Atlanta, Ga., is used as the standard virus for the studies in human PBM cells.

HBV = assay: Cell culture assay for anti-HBV activity (2.2.15 cells, HBV DNA in medium by Southern blot); type: cell-based, Hepatitis B virus; conditions: for pEC50: read-out: Anti-HBV EC50
Source text: We follow the protocol described by Korba and Gerin(Antiviral Res., 1992, 19:55) and Pai et al. (Antimicrobial Agents Chemother., 1996, 40:380) which is used widely in the field. The HepG 2 2.2.15 cells contain a stably integrated HBV genome, the transcript from which serves as a template for viral replication. The cells produce virions which are elaborated into the medium. The production of the virion DNA is monitored by analysis of medium by Southern blotting. Drugs which inhibit viral replication reduce the levels of virion DNA in the medium, relative to controls.
Confluent cells in 24 well tissue culture dishes are treated with test compounds starting at 1 nM and extending logarithmically to 10 μM (1 nM, 3.2, 10 nM, 32, 100 nM, 1 μM, 10 μM […]). Medium is changed […] every 3 days and DNA extracted from the 3, 6, and […] day samples. The virions are concentrated by polyethylene glycol precipitation (equal volume addition of PEG 8000). After cooling on ice the samples are spun and the pellets treated with SDS and Proteinase K followed by Phenol:Chloroform extraction and ethanol precipitation of the DNA. The DNA is analyzed for HBV sequences by Southern hybridization. The probe used for the analysis is a ^32P labeled Eco RI fragment from the HBV clone described by Korba et al. 3TC is used as a positive control compound with known activity against HBV.
System: The most widely used system for the study of anti-HBV agents is the hepatoma cell culture system with the HBV genome. These cells are designated as the 2.2.15 cells, AD38 cells and AD79 cells. The 2.2.15 cells were generated by the transfection of the human hepatoma cells—HepG2 with HBV DNA. (Sells, et al., Proc. Natl. Acad. Sci. USA 84:1005–1009, 1987) HBV viral replication takes place in these cells. The HBV replication can be monitored intracellularly as well as extracellularly in these cells.
Assay for Anti-HBV agents: 2.215 cells are grown in multi-well dishes in RPMI medium supplemented with 4% fetal bovine serum. After 3 to 4 days of growing the cells, they are treated with varying concentrations of the test compound(s). The test compounds are dissolved in DMSO or sterile water. Cultures without the addition of the test compounds serve as controls. The addition of the test compound(s) is repeated at 3-day intervals. The medium is changed and replaced with appropriate concentration of the test compound. At the end of the 9-day treatment period, the culture medium is harvested and processed for viral DNA. The viral DNA thus obtained is analyzed by Southern blot analysis. After the Southern transfer, the blot is subjected to hybridization to an HBV specific probe to detect HBV DNA. The hybriodization is carried out overnight. After the hybridization, free probe is removed by washing of the blots. The specific hybridization is visualized by autoradiography. Inhibition produced by the test compound is calculated with reference to the levels of HBV DNA in the control samples.

HIV-1 = assay: Anti-HIV evaluation in human PBM cells; type: cell-based; conditions: for pEC50: HIV-1
Source text: as §2

[4] = Cytotoxicity in HepG2 cells; type: cell-based; conditions: human
Experimental: as §1

PBM cells = assay: Cytotoxicity in PBM cells; type: cell-based, human
Experimental: as §1, §2

[5] = Human immunodeficiency virus 1, PBMC

Row | Structure (SMILES) | IC50 at 10 day [1] [µM] | IC50 at 10 day [2] [µM] | IC50 [3] [µM] | pEC50 (HBV; Hepatitis B virus) | pEC50 (HIV-1; [5]) | IC50 at 10 day [4] [µM] | Inhibition of HBV replication (in words) (HBV) | Inhibition of HIV replication (in words) (HIV-1) | IC50 (PBM cells) [µM] | pEC50 (HBV) | Antiviral activity (in words) (HBV; virus not named) | pEC50 (HIV-1) | EC50 (HBV; Hepatitis B virus, read-out: Anti-HBV EC50 (μM)) [µM]
1 | Nc1ccn(C2OC(CO)C(CCO)C2F)c(=O)n1 (centres unmarked) [Compound 24 (Series 2)] | > 100 | > 100 | > 100 | < 5.00 | < 4.00 |  |  |  |  |  |  |  | 
2 | Cc1cn(C2OC(CO)C(CO)C2F)c(=O)[nH]c1=O (centres unmarked) [Compound 1 (Series 2)] |  |  | > 100 | < 5.00 | < 4.00 |  |  |  |  |  |  |  | 
3 | CN(O)C1C(CO)OC(n2ccc(N)nc2=O)C1F (centres unmarked) [Compound 59 (Series 2)] | > 100 | 65.3 | > 100 | ≥ 5.00 | 6.31 | > 100 | potent inhibitors | potent inhibitors |  |  |  |  | 
4 | Cc1cn(C2OC(CO)C(CO)C2F)c(=O)[nH]c1=O (centres unmarked) [Compound 12 (Series 2)] | > 100 | > 100 |  |  |  |  |  |  | > 100 | > 5.00 | moderate activities | < 4.00 | 
5 | CN(O)C1C(CO)OC(n2cc(F)c(=O)[nH]c2=O)C1F (centres unmarked) [Compound 60 (Series 2)] | > 100 | > 100 | > 100 | < 5.00 | < 4.00 |  |  |  |  |  |  |  | 
6 | Cc1cn(C2OC(CO)C(C)C2F)c(=O)[nH]c1=O (centres unmarked) [Compound 22 (Series 2)] | > 100 | > 100 | > 100 | < 5.00 | < 4.00 |  |  |  |  |  |  |  | 
7 | CNC1C(CO)OC(n2ccc(N)nc2=O)C1F (centres unmarked) [Compound 70 (Series 2)] | > 100 | 109 | > 100 | ≥ 5.00 | 5.62 |  | potent inhibitors | potent inhibitors |  |  |  |  | 
8 | CN(O)C1C(CO)OC(n2ccc(N)nc2=O)[C@H]1F (some centres unmarked) [Compound 58 (Series 2)] | ~106 | 40.2 | 7.4 | 6.19 | 7.05 | > 100 | potent inhibitors | potent inhibitors |  |  |  |  | 
9 | CC1C(CO)OC(n2cc(F)c(N)nc2=O)C1F (centres unmarked) [Compound 21 (Series 2)] | > 100 | > 100 | > 100 | < 5.00 | < 4.00 |  |  |  |  |  |  |  | 
10 | CNC1C(CO)OC(n2cc(C)c(=O)[nH]c2=O)C1F (centres unmarked) [Compound 68 (Series 2)] | > 100 | > 100 | > 100 | < 5.00 | < 4.00 |  |  |  |  |  |  |  | 
11 | Nc1nc(=O)n(C2OC(CO)C(CO)C2F)cc1F (centres unmarked) [Compound 10 (Series 2)] | > 100 | > 100 | > 100 | 6.89 | 5.48 | > 100 | potent inhibitors | potent inhibitors |  |  |  |  | 
12 | CCOP(=O)(CCC1=NOC(n2cc(C)c(=O)[nH]c2=O)C1)OCC (centres unmarked) [Compound 33 (Series 2)] | > 100 | > 100 | > 100 |  | < 4.00 |  |  |  |  |  |  |  | > 10
13 | Cc1cn(C2CC(CCl)C(CO)O2)c(=O)[nH]c1=O (centres unmarked) [Compound 3 (Series 1)] | > 100 |  | > 100 | < 5.00 | < 4.00 |  |  |  |  |  |  |  | 
14 | Nc1ncnc2c1ncn2C1OC(CO)C(CO)C1F (centres unmarked) [Compound 23 (Series 2)] | > 100 | > 100 | > 100 | 5.98 | 4.02 | > 100 |  |  |  |  |  |  | 
